Assay results reported in ChEMBL document CHEMBL1221369, “Cytotoxic isomalabaricane derivatives and a monocyclic triterpene glycoside from the sponge Rhabdastrella globostellata” (J Nat Prod, 2010).
pIC50: −log10 of the molar value. Calls of active or inactive are those of the source. No cut-off for these calls is given here.

Columns and labels:
HL-60 (human) [1] = assay: Cytotoxicity against human HL-60 cells by MTT assay
HL-60 (human) [2] = assay: Induction of apoptosis in human HL-60 cells assessed as pro-caspase 3 cleavage at 10 uM by immunoblot analysis
HL-60 (human) [3] = assay: Induction of apoptosis in human HL-60 cells at 10 uM after 72 hrs by FITC-conjugated annexin V staining-based FACS analysis
HL-60 (human) [4] = assay: Effect on Bcl-2 expression in human HL-60 cells at 10 uM by immunoblot analysis
HL-60 (human) [5] = assay: Cytotoxicity against human HL-60 cells at 100 uM by MTT assay

SMILES	pIC50 (HL-60 (human) [1])	Activity (HL-60 (human) [2])	Activity (HL-60 (human) [3])	Activity (HL-60 (human) [4])	Activity (HL-60 (human) [5])
C=C(C)[C@@H]1C[C@@H](OC(C)=O)[C@](C)(OC(C)=O)[C@H]1/C=C/C(C)=C1\C(=O)C[C@H]2[C@@]3(C)CC[C@H](OC(C)=O)C(C)(C)[C@@H]3CC[C@]12C [RHABDASTIN D DIACETATE]	4.96				
C=C(C)[C@@H]1C[C@@H](O)[C@](C)(O)[C@H]1/C=C/C(C)=C1\C(=O)C[C@H]2[C@@]3(C)CC[C@H](OC(C)=O)C(C)(C)[C@@H]3CC[C@]12C [RHABDASTIN E]	4.54	Active	17%	inactive	
C=C(C)[C@@H]1C[C@H](O)[C@](C)(O)[C@H]1/C=C/C(C)=C1\C(=O)C[C@H]2[C@@]3(C)CC[C@H](OC(C)=O)C(C)(C)[C@@H]3CC[C@]12C [RHABDASTIN D]	4.68	Active	18%	inactive	
COC(=O)/C(C)=C1\C(=O)C[C@H]2[C@@]3(C)CC[C@H](OC(C)=O)[C@](C)(C(=O)OC)[C@@H]3CC[C@]12C					inactive
CC(=O)O[C@H]1CC[C@@]2(C)[C@@H](CC[C@]3(C)/C(=C(C)/C=C/[C@H]4[C@H](C(C)(C)O)C[C@@H](O)[C@]4(C)O)C(=O)C[C@@H]23)C1(C)C [RHABDASTIN G]	4.36				
COC(=O)/C(C)=C1\C(=O)C[C@H]2[C@@]3(C)CC[C@H](O)C(C)(C)[C@@H]3CC[C@]12C					inactive
COC(=O)/C(C)=C1\C(=O)C[C@H]2[C@@]3(C)CC[C@H](OC(C)=O)C(C)(C)[C@@H]3CC[C@]12C					inactive
